The source of these data is patent publication US20240208981A1, “NITROGEN-CONTAINING HETEROCYCLIC POLYCYCLIC COMPOUND, PREPARATION METHOD THEREFOR, AND APPLICATION THEREOF” (Shanghai Hansoh Biomedical Co., Ltd., priority 2021, published 2024).

The target in one series is human OX2R (Homo sapiens (Human), UniProt O43614). Kind of series: Calcium flux in cells stably expressing OX2 receptor (FLIPR, Fluo-8 AM). Format: cell-based. The following applies: for pIC50: CHO-K1/human OX2R cells, inhibition of calcium flux, agonist OX-B at EC80; for Selectivity multiple: OX1R IC50 versus OX2R IC50. As to the method:
(§1) To determine the inhibitory effect of the compounds on calcium flux in CHO-K1/human OX1R and CHO-K1/human OX2R cells.
(§2) • 1) CHO-K1/human OX1R and CHO-K1/human OX2R cell lines were cultured separately in complete medium at 37° C., 5% CO2 to 70%˜90% confluence; • 2) A 384-well cell culture plate was coated with 1× Matrigel (5 uL per well) at room temperature for 10-30 minutes; • 3) The cells were digested and resuspended in cell inoculation medium. CHO-K1/human OX1R and CHO-K1/human OX2R cell lines were inoculated into two 384-well cell culture plates respectively (8,000 cells/well/20 μL). The culture plates were incubated at 37 °C, 5% CO2 for 24 hours; • 4) The cell culture plates were taken out of the CO2 incubator and equilibrated at room temperature for 10 minutes; • 5) 1000× Fluo-8 AM was diluted with assay buffer 1 equilibrated to room temperature to obtain 1× Fluo-8 AM at a concentration of 2 μM; • 6) The culture medium in the cell culture plate was removed, and 20 μL of 1× Fluo-8 AM was added to each well. The plates were centrifuged at room temperature at 300 rpm for 60 seconds, and incubated at room temperature in the dark for 1 hour; • 7) Determination of EC80 of OX1 and OX2 receptors agonists (OX-A for OX1R assays, OX-B for OX2R assays): OX1 and OX2 receptors agonists working solutions were diluted and prepared respectively. The diluted OX1 and OX2 receptors agonists were added using FLIPR Tetra to the experimental wells of the 384-well cell culture plates corresponding to CHO-K1/human OX1R and CHO-K1/human OX2R cell lines. The data were collected, and EC80 of OX-A and OX-B was obtained according to the following experimental data processing method; • 8) Steps 1 to 7 were repeated. […] After 15 minutes, OX1 and OX2 receptors agonists were added to the plates of the two cell lines respectively according to the previously obtained EC80. The data were collected, and the IC50 of the positive compounds and the test compounds was determined.
(§3) Fluorescence signal value (RFU) was collected with FLIPR Tetra.

The next series has as its target human OX1R (Homo sapiens (Human), UniProt O43613). Description: Calcium flux in cells stably expressing OX1 receptor (FLIPR, Fluo-8 AM). The following applies: CHO-K1/human OX1R cells; inhibition of calcium flux, agonist OX-A at EC80. Format: cell-based. As to the method:
as §1, §2, §3

For another series, the target named is CYP450 1A2 (Homo sapiens (Human), UniProt P05177). The procedure: (§4) The human liver microsome incubation system was used to rapidly predict the inhibitory effect of the compounds on CYP450 enzyme subtypes by using single-point method.
CYP450 1A2, sequence (P05177 whole entry): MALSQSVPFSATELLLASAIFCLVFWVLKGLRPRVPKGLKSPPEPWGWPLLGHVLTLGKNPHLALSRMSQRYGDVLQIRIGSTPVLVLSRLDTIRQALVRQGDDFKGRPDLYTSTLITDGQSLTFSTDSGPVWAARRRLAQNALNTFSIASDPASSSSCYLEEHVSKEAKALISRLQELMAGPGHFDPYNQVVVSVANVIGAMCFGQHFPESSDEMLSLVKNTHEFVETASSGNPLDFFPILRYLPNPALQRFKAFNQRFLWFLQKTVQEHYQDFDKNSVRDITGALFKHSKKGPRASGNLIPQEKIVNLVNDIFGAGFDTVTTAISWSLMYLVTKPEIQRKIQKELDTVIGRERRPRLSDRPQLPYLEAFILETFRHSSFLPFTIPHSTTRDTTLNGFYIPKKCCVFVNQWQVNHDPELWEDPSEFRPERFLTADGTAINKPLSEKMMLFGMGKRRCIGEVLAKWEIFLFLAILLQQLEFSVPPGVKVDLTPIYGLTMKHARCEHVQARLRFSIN
(§5) The compound of the example to be tested was weighed, diluted to 10 mM with DMSO, and then diluted to 100 μM with 100 mM phosphate buffer.
(§6) • 1. 40 μL of liver microsomes, 10 μL of substrate, and 10 μL of the test compound were added to a 96-well plate, and pre-incubated for 3 minutes. • 2. 40 μL of NADPH was added. • 3. 300 μL of acetonitrile stop solution containing an internal standard was added at 20 minutes. • 4. The sample was injected […].

The target of a further series is CYP450 2C9 (Homo sapiens (Human), UniProt P11712). Description: CYP enzyme single point inhibition assay, human liver microsomes, 2C9. The following applies: single-point method. Type of series: in vitro ADME. As to the method: as §4, §5, §6
CYP450 2C9, sequence (P11712 whole entry): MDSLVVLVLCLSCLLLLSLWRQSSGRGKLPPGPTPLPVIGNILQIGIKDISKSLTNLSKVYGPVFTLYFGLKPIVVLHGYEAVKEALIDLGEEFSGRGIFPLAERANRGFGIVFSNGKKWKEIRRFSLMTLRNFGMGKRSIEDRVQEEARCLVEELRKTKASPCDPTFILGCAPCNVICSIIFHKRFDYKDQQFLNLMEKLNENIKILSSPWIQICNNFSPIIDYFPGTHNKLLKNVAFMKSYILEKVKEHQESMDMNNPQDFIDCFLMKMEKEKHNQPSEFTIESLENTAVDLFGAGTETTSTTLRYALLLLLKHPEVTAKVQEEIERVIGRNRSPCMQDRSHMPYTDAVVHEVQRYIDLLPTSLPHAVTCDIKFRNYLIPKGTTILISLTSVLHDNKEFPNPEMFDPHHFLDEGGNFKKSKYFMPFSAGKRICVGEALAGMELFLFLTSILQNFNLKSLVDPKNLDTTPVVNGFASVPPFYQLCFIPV
Another series addresses CYP450 2D6 (Homo sapiens (Human), UniProt P10635). Kind of series: CYP enzyme single point inhibition assay, human liver microsomes, 2D6. Format: in vitro ADME. The following applies: single-point method. The procedure: as §4, §5, §6
The next series is described as follows: in vivo. The following applies: male, SD, rat, po, 5 mg/kg. The procedure:
SD rats were used as test animals.
The plasma samples were stored at −80° C.

pIC50: −log10 of the molar value. Some results are limits rather than exact numbers.

human OX2R, sequence (O43614 whole entry): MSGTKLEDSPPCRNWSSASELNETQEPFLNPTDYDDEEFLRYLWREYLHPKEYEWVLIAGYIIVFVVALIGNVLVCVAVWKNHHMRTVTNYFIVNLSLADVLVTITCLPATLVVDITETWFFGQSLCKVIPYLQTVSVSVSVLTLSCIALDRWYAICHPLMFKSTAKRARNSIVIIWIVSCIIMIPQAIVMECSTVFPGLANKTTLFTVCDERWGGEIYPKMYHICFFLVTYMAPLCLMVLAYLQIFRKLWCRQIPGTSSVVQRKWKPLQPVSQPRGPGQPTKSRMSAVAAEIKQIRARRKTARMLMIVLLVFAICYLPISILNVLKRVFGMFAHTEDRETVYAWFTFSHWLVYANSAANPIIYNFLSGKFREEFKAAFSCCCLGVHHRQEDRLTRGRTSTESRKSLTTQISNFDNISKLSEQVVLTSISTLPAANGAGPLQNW
human OX1R, sequence (O43613 whole entry): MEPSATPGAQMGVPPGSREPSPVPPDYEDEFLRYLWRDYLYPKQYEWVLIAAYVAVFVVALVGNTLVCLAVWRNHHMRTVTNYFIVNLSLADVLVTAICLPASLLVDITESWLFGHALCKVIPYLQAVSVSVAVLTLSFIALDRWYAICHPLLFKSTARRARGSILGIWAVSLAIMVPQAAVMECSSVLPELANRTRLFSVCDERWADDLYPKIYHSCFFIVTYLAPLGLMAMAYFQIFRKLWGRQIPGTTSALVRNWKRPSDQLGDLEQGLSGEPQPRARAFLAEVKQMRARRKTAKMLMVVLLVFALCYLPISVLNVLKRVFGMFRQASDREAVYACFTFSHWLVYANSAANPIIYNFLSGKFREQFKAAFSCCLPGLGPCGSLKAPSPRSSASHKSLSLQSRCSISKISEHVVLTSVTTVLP
CYP450 2D6, sequence (P10635 whole entry): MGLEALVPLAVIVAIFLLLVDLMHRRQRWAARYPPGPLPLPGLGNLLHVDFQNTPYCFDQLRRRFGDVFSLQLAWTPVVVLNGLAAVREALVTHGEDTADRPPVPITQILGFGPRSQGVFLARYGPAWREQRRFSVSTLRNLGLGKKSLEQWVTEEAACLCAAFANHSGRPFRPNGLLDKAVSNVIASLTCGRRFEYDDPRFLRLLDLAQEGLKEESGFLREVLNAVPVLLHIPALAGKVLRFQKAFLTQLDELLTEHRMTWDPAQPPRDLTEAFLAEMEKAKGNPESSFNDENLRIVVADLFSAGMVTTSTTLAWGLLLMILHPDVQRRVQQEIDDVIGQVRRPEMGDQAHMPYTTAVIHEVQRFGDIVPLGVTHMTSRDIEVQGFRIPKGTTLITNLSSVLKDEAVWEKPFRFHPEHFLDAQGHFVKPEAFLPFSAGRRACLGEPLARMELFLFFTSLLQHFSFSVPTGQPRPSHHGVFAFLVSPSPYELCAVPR

Regarding `Cc1ccc(N2C[C@H]3CN(C(=O)c4c(F)cccc4-n4nccn4)C[C@H]3C2)nc1C(C)(C)O` [Compound 48, (2-fluoro-6-(2H-1,2,3-triazol-2-yl)phenyl)((3aR,6aS)-5-(6-(2-hydroxypropan-2-yl)-5-methylpyridin-2-yl)hexahydropyrrolo[3,4-c]pyrrol-2(1H)-yl)methanone], the pIC50 was 7.13 at human OX2R and 4.61 at human OX1R. For the same compound, the Selectivity multiple on human OX2R came out at 328.

With `Cc1cc(C)nc(N2C[C@H]3CN(C(=O)c4c(F)cccc4-n4ncc(C5CC5)n4)C[C@H]3C2)n1` [Compound 43, (2-(4-cyclopropyl-2H-1,2,3-triazol-2-yl)-6-fluorophenyl)((3aR,6aS)-5-(4,6-dimethylpyrimidin-2-yl)hexahydropyrrolo[3,4-c]pyrrol-2(1H)-yl)methanone], the figures for the pIC50 at human OX2R and at human OX1R were 7.00 and 4.99, respectively. Besides, the Selectivity multiple at human OX2R was found to be 102.

For the compound `Cc1nc(N2C[C@H]3CN(C(=O)c4ccc(F)cc4-n4nccn4)C[C@H]3C2)nc(C(C)(C)O)c1F` [Compound 94, (4-fluoro-2-(2H-1,2,3-triazol-2-yl)phenyl)((cis)-5-(5-fluoro-4-(2-hydroxypropan-2-yl)-6-methylpyrimidin-2-yl)hexahydropyrrolo[3,4-c]pyrrol-2(1H)-yl)methanone], the pIC50 on human OX2R is 7.60; at human OX1R, 5.92. For the same compound, at human OX2R, the Selectivity multiple stood at 48.

In turn, `CC(C)(O)c1nc(N2C[C@H]3CN(C(=O)c4c(F)cccc4-c4ncccn4)C[C@H]3C2)ncc1F` [Compound 93, ((3aR,6aS)-5-(5-fluoro-4-(2-hydroxypropan-2-yl)pyrimidin-2-yl)hexahydropyrrolo[3,4-c]pyrrol-2(1H)-yl)(2-fluoro-6-(pyrimidin-2-yl)phenyl)methanone] showed a pIC50 on CYP450 1A2 of under 4.00. Further, the IC50 on CYP450 2C9 and against CYP450 2D6 was over 100 µM each time. In addition, the Selectivity multiple on human OX2R amounted to 122.

In the case of `Cc1cc(C(C)(C)O)nc(N2C[C@H]3CN(C(=O)c4c(F)cccc4-n4nccn4)C[C@H]3C2)n1` [Compound 3, (2-fluoro-6-(2H-1,2,3-triazol-2-yl)phenyl)((3aR,6aS)-5-(4-(2-hydroxypropan-2-yl)-6-methylpyrimidin-2-yl)hexahydropyrrolo[3,4-c]pyrrol-2(1H)-yl)methanone], on human OX2R, the pIC50 was 7.35 and the Selectivity multiple stood at 83. For the same compound, the pIC50 on human OX1R is 5.43.

Take `Cc1cc(C)nc(N2C[C@H]3CN(C(=O)c4ccccc4OC(F)(F)C(F)F)C[C@H]3C2)n1` [Compound 45, ((3aR,6aS)-5-(4,6-dimethylpyrimidin-2-yl)hexahydropyrrolo[3,4-c]pyrrol-2(1H)-yl)(2-(1,1,2,2-tetrafluoroethoxy)phenyl)methanone]: on human OX2R, the pIC50 was 7.28 and the Selectivity multiple is 83. On human OX1R, the pIC50 was 5.36.

`Cc1nc(N2C[C@H]3CN(C(=O)c4c(F)cccc4-c4ccccn4)C[C@H]3C2)nc(C(C)(C)O)c1F` [Compound 97, ((3aR,6aS)-5-(5-fluoro-4-(2-hydroxypropan-2-yl)-6-methylpyrimidin-2-yl)hexahydropyrrolo[3,4-c]pyrrol-2(1H)-yl)(2-fluoro-6-(pyridin-2-yl)phenyl)methanone]: the Selectivity multiple at human OX2R is on record as 36.

Regarding `Cc1cc(C(C)(C)F)nc(N2C[C@H]3CN(C(=O)c4c(F)cccc4-n4nccn4)C[C@H]3C2)n1` [Compound 57, (2-fluoro-6-(2H-1,2,3-triazol-2-yl)phenyl)((3aR,6aS)-5-(4-(2-fluoropropan-2-yl)-6-methylpyrimidin-2-yl)hexahydropyrrolo[3,4-c]pyrrol-2(1H)-yl)methanone], at human OX2R, the pIC50 is 8.01 and the Selectivity multiple was 314. Moreover, the pIC50 on human OX1R was 5.52. Further, in the series “in vivo”, the AUC(0-inf) was found to be 279 ng·h/mL, the Cmax turned out to be 110 ng/mL and the Tmax is 30 min.

Take `Cc1cc(N2C[C@H]3CN(C(=O)c4c(O)cccc4-n4nccn4)C[C@H]3C2)nc(C(C)(C)O)c1` [Compound 85, (2-hydroxy-6-(2H-1,2,3-triazol-2-yl)phenyl)((3R,6S)-5-(6-(2-hydroxypropan-2-yl)-4-methylpyridin-2-yl)hexahydropyrrolo[3,4-c]pyrrol-2(1H)-yl)methanone]: the values for the pIC50 at human OX2R and at human OX1R were 7.23 and 4.86, respectively. At human OX2R, the Selectivity multiple is 234.

`CC(C)(O)c1nc(N2C[C@H]3CN(C(=O)c4c(F)cccc4-n4nccn4)C[C@H]3C2)ccc1F` [Compound 91, ((3aR,6aS)-5-(5-fluoro-6-(2-hydroxypropanyl)pyridin-2-yl)hexahydropyrrolo[3,4-c]pyrrol-2(1H)-yl)(2-fluoro-6-(2H-1,2,3-triazol-2-yl)phenyl)methanone]: the pIC50 was 7.44 at human OX2R and 5.50 on human OX1R. Further, at human OX2R, the Selectivity multiple was found to be 88.

In the case of `Cc1cc(C)nc(N2C[C@H]3CN(C(=O)c4ccccc4-c4nc5ccccc5o4)C[C@H]3C2)n1` [Compound 50, (2-(benzooxazol-2-yl)phenyl)((3aR,6aS)-5-(4,6-dimethylpyrimidin-2-yl)hexahydropyrrolo[3,4-c]pyrrol-2(1H)-yl)methanone], the pIC50 is 7.15 on human OX2R and 5.23 on human OX1R. Also, the Selectivity multiple at human OX2R turned out to be 82.

As to `Cc1cc(C(C)(C)O)nc(N2C[C@H]3CN(C(=O)c4c(F)cccc4-c4ncccn4)C[C@H]3C2)n1` [Compound 56, (2-fluoro-6-(pyrimidin-2-yl)phenyl)((3R,6S)-5-(4-(2-hydroxypropan-2-yl)-6-methylpyrimidin-2-yl)hexahydropyrrolo[3,4-c]pyrrol-2(1H)-yl)methanone], on human OX2R, the pIC50 was 8.09 and the Selectivity multiple stood at 405. Further, the pIC50 on human OX1R was 5.48.

On to `Cc1cc(N2C[C@H]3CN(C(=O)c4c(F)cccc4-n4nccn4)C[C@H]3C2)nc(C(C)(C)O)c1` [Compound 60, (2-fluoro-6-(2H-1,2,3-triazol-2-yl)phenyl)((3R,6S)-5-(6-(2-hydroxypropan-2-yl)-4-methylpyridin-2-yl)hexahydropyrrolo[3,4-c]pyrrol-2(1H)-yl)methanone], for which the results for the pIC50 on CYP450 1A2, on human OX2R and at human OX1R were under 4.00, 7.26 and 4.87, respectively. Besides, the Selectivity multiple on human OX2R came out at 244.

`Cc1nc(N2C[C@H]3CN(C(=O)c4cccc(F)c4-n4nccn4)C[C@H]3C2)nc(C(C)(C)O)c1F` [Compound 95, (3-fluoro-2-(2H-1,2,3-triazol-2-yl)phenyl)((cis)-5-(5-fluoro-4-(2-hydroxypropan-2-yl)-6-methylpyrimidin-2-yl)hexahydropyrrolo[3,4-c]pyrrol-2(1H)-yl)methanone] showed a pIC50 at CYP450 1A2 of under 4.00. The IC50 on CYP450 2C9 and against CYP450 2D6 was over 100 µM each time. In addition, on human OX2R, the Selectivity multiple was 49.
